Values of other authors, collected in US11364228B2 (Ovid Therapeutics Inc., priority 2019, dated 2022).

Experiments:
[1] = system: sleep onset and sleep maintenance; conditions: three-month efficacy study, treatment of insomnia
[2] = system: patients with a history of drug abuse; conditions: patients with a history of drug abuse who received gaboxadol
[3] = conventional pharmaceutical compositions such as tablets and capsules

For `Oc1noc2c1CCNC2` [Gaboxadol, 4,5,6,7-tetrahydroisoxazolo [5,4-c]pyridine-3-ol], the “effects in sleep onset and sleep maintenance” value [1] is listed as “failed to show significant effects”, the half-life [3] is listed as 1.5 to 2 h and the “time to reach peak concentration” value [3] is listed as at most 30 min. The “half-life (t1/2)” value (plasma half-life post administration) was 1.5 to 2 h and the psychiatric adverse events [2] was “steep increase in psychiatric adverse events”.
